Measurements: patent publication US10245264B2, “Substituted imidazo[1,2-a]pyrazines as soluble guanylate cyclase activators” (Merck Sharp & Dohme Corp., priority 2015, dated 2019)

Target: T1, sGC α1/β1 heterodimer stably expressed in CHO-K1 cells (CHO-K1/sGC) (Homo sapiens, UniProt Q02108+Q02153)
T1 construct: expressed in transfected cells
T1 sequence (Q02108 1-690): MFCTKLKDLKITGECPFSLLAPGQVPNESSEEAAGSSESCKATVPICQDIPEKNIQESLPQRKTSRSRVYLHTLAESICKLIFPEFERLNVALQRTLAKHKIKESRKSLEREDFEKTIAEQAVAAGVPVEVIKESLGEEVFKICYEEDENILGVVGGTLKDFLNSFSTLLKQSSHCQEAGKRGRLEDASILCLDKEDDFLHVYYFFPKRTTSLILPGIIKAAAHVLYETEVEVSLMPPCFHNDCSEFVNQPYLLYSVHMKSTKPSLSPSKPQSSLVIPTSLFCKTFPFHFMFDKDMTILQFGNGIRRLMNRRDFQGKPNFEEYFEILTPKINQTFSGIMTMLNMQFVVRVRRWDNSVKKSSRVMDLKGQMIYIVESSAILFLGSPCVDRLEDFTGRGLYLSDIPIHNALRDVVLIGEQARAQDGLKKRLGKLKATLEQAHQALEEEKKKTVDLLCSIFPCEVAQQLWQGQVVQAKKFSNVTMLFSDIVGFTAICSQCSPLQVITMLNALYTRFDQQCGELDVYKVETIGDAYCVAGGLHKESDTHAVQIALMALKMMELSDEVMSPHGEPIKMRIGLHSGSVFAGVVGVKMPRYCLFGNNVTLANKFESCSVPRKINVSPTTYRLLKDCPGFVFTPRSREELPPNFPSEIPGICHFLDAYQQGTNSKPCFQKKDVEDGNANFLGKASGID
T1 sequence (Q02153 1-619): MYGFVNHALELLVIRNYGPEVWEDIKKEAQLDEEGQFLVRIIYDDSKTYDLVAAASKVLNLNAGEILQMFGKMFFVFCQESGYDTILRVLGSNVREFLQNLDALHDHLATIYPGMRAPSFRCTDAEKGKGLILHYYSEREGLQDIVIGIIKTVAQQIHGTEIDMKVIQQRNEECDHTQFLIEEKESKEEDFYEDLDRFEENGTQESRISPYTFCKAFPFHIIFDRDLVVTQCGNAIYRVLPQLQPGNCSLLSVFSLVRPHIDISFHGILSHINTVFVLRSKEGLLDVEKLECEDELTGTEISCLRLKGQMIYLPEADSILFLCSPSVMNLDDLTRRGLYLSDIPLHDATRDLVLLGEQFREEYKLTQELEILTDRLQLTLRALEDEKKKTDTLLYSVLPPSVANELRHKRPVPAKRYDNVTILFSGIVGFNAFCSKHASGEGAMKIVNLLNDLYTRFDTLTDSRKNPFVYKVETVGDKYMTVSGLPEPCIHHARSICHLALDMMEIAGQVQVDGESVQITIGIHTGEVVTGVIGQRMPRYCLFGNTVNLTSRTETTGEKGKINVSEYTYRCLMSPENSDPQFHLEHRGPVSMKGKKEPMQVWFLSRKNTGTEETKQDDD
Test: Cell-based sGC functional assay (CASA assay), cGMP generation by HTRF
Conditions: for Emax: CHO-K1, maximum cGMP production of Compound A set to 100% activation, read-out: % Act. (percent activation relative to Compound A); for EC50: CHO-K1/sGC cells, 1 hr at 37° C., 4P fit, presence or absence of DETA-NO not given, read-out: IP (nM) (inflection point)
Description: Biological Assay 1: Cell-Based sGC Functional Assay (CASA Assay) Rationale
sGC is a heme-containing enzyme that converts GTP to secondary messenger cGMP. Increases in cGMP levels affect several physiological processes including vasorelaxation through multiple downstream pathways. […] Heme-dependent activators (HDAs) preferentially activate sGC containing a ferrous heme group. To determine the effect of sGC activators on enzyme activity, the CASA assay was developed to monitor the generation of cGMP in a cell line that stably expresses the heterodimeric sGC protein.
A CHO-K1 cell line stably expressing the sGC α1/β1 heterodimer was generated using a standard transfection protocol. CHO-K1 cells were transfected with plasmids pIREShyghsGCα1 and pIRESneo-hsGCβ1 simultaneously using FUGENE reagent. Clones that stably express both subunits were selected with hygromycin and neomycin for ˜2 weeks. Clone #7 was chosen for the assay and was designated CHO-K1/sGC. CHO-K1/sGC cells were maintained in F-K12 medium containing 10% heat-inactivated Fetal Bovine Serum (FBS), 100 μg/mL penicillin/streptomycin, 0.5 mg/mL hygromycin and 0.25 mg/mL G418. The cells were then cryopreserved in LN2. On the day of the assay, cells were thawed and resuspended in EBSS Assay Buffer (Sigma, E3024) supplemented with 5 mM MgCl2, 10 mM HEPES (4-(2-hydroxyethyl)piperazine-1-ethanesulfonic acid) and 0.05% BSA (bovine serum albumin) (EAB) and cell density was then adjusted to 4×10^5/mL with EAB. IBMX (3-isobutyl-1-methylxanthin, 0.5 mM) was added to inhibit degradation of cGMP. Compounds were diluted from DMSO stock solutions and added to the assay at a final DMSO concentration of 2.5%. Cells were incubated with compounds in the presence and absence of 1 μM of Diethylenetriamine/nitric oxide adduct (DETA-NO; Sigma, 17018) for 1 hr at 37° C. At the end of the incubation period, the reaction was terminated and the cells were lysed with the detection reagents from Cisbio Kits. The level of intracellular cGMP was determined using an HTRF-based assay kit (CisBio, 62GM2PEC), which detects the displacement of a fluorescence labeled cGMP from its specific antibody. The cGMP produced by test compounds was directly compared to the maximum cGMP production (this value was set to equal 100% activation.) of the published sGC-HDA Compound A:
[drawing 101] (Example 1 in WO 2010/065275, published Jun. 10, 2010). The test compounds' activities were then expressed as a percentage of Compound A, the standard in every experiment. This percent activation was calculated either in the presence or absence of DETA-NO which was then plotted. IP and maximum fold induction was derived using ADA analysis software for 4P fit.
The compounds in the Examples of the instant invention had inflection points (IP) less than or equal to 10 μM and many had IPs less than or equal to about 1 μM.

| SMILES | Emax | EC50 |
| --- | --- | --- |
| CC1(c2ccccc2)C(=O)Nc2nc(-c3cn4ccnc4c(Oc4c(F)ccc(F)c4F)n3)nc(N)c21 (centres unmarked) [Example 7B, 4-amino-5-methyl-5-phenyl-2-[8-(2,3,6-trifluorophenoxy)imidazo[1,2-a]pyrazin-6-yl]-5,7-dihydro-6H-pyrrolo[2,3-d] pyrimidin-6-one] | 112% | 1020 nM |
| CC1(c2ccc(F)cc2)C(=O)Nc2nc(-c3cn4ccnc4c(Oc4ccccc4)n3)nc(N)c21 (centres unmarked) [Example 9A, 4-amino-5-(4-fluorophenyl)-5-methyl-2-(8-phenoxyimidazo [1,2-a]pyrazin-6-yl)-5,7-dihydro-6H-pyrrolo[2,3-d] pyrimidin-6-one] | 124% | 28 nM |
| CC1(c2ccccc2)C(=O)Nc2nc(-c3cn4ccnc4c(Oc4ccc(F)c(F)c4F)n3)nc(N)c21 (centres unmarked) [Example 11B, 4-amino-5-methyl-5-phenyl-2-[8-(2,3,4-trifluoro-phenoxy)imidazo [1,2-a]pyrazin-6-yl]-5,7-dihydro-6H-pyrrolo[2,3-d] pyrimidin-6-one] | 104% | 138 nM |
| CC1(c2ccccc2)C(=O)Nc2nc(-c3cn4ccnc4c(Oc4cc(F)cc(F)c4F)n3)nc(N)c21 (centres unmarked) [Example 12B, 4-amino-5-methyl-5-phenyl-2-[8-(2,3,5-trifluoro-phenoxy)imidazo [1,2-a]pyrazin-6-yl]-5,7-dihydro-6H-pyrrolo[2,3-d] pyrimidin-6-one] | 99% | 47 nM |
| Nc1nc(-c2cn3ccnc3c(OCC(F)(F)C(F)(F)F)n2)nc2c1C(c1ccc(F)cc1)(C1CC1)C(=O)N2 (centres unmarked) [Example 14B, 4-amino-5-cyclopropyl-5-(4-fluorophenyl)-2-[8-(2,2,3,3,3-pentafluoropropoxy)imidazo[1,2-a]pyrazin-6-yl]-5,7-dihydro-6H-pyrrolo [2,3-d]pyrimidin-6-one] | 96% | 534 nM |
| CC1(c2ccc(F)cc2)C(=O)Nc2nc(-c3cn4ccnc4c(Oc4ccc(F)c(F)c4F)n3)nc(N)c21 (centres unmarked) [Example 16A, 4-amino-5-(4-fluorophenyl)-5-methyl-2-[8-(2,3,4-trifluorophenoxy)imidazo[1,2-a]pyrazin-6-yl]-5,7-dihydro-6H-pyrrolo [2,3-d]pyrimidin-6-one] | 89% | 37 nM |
| CC1(c2ccc(F)cc2)C(=O)Nc2nc(-c3cn4ccnc4c(Oc4ccc(F)cc4F)n3)nc(N)c21 (centres unmarked) [Example 19A, 4-amino-2-[8-(2,4-difluorophenoxy)imidazo[1,2-a]pyrazin-6-yl]-5-(4-fluorophenyl)-5-methyl-5,7-dihydro-6H-pyrrolo[2,3-d] pyrimidin-6-one] | 109% | 74 nM |
| CC1(c2ccc(F)cc2)C(=O)Nc2nc(-c3cn4ccnc4c(Oc4ccc(F)cc4)n3)nc(N)c21 (centres unmarked) [Example 20A, 4-amino-2-[8-(4-fluorophenoxy)imidazo[1,2-a]pyrazin-6-yl]-5-(4-fluorophenyl)-5-methyl-5,7-dihydro-6H-pyrrolo[2,3-d] pyrimidin-6-one] | 109% | 42 nM |
| CC1(c2ccc(F)cc2)C(=O)Nc2nc(-c3cn4ccnc4c(Oc4cncc(C(F)(F)F)c4)n3)nc(N)c21 (centres unmarked) [Example 21A, 4-amino-5-(4-fluorophenyl)-5-methyl-2-(8-{[5-(trifluoromethyl)pyridin-3-yl]oxy}imidazo[1,2-a]pyrazin-6-yl)-5,7-dihydro-6H-pyrrolo[2,3-d] pyrimidin-6-one] | 137% | 1060 nM |
| CC1(c2ccc(F)cc2)C(=O)Nc2nc(-c3cn4ccnc4c(OC4CCCCC4)n3)nc(N)c21 (centres unmarked) [Example 22A, 4-amino-2-[8-(cyclohexyloxy)imidazo[1,2-a]pyrazin-6-yl]-5-(4-fluorophenyl)-5-methyl-5,7-dihydro-6H-pyrrolo[2,3-d] pyrimidin-6-one] | 107% | 171 nM |

Now those with a lower EC50, led by results:

| Emax | EC50 | SMILES |
| --- | --- | --- |
| 104% | 23 nM | CC1(c2ccc(F)cc2)C(=O)Nc2nc(-c3cn4ccnc4c(Oc4cccc(F)c4F)n3)nc(N)c21 (centres unmarked) [Example 15A, 4-amino-2-[8-(2,3-difluorophenoxy)imidazo[1,2-a]pyrazin-6-yl]-5-(4-fluorophenyl)-5-methyl-5,7-dihydro-6H-pyrrolo[2,3-d] pyrimidin-6-one] |
| 110% | 22 nM | CC1(c2ccccc2)C(=O)Nc2nc(-c3cn4ccnc4c(Oc4cccc(F)c4)n3)nc(N)c21 (centres unmarked) [Example 8B, 4-amino-2-[8-(3-fluorophenoxy)imidazo[1,2-a]pyrazin-6-yl]-5-methyl-5-phenyl-5,7-dihydro-6H-pyrrolo[2,3-d] pyrimidin-6-one] |
| 100% | 17 nM | CC1(c2ccc(F)cc2)C(=O)Nc2nc(-c3cn4ccnc4c(Oc4cc(F)cc(F)c4F)n3)nc(N)c21 (centres unmarked) [Example 17A, 4-amino-5-(4-fluorophenyl)-5-methyl-2-[8-(2,3,5-trifluorophenoxy)imidazo[1,2-a]pyrazin-6-yl]-5,7-dihydro-6H-pyrrolo [2,3-d]pyrimidin-6-one] |
| 100% | 16 nM | CC1(c2ccc(F)cc2)C(=O)Nc2nc(-c3cn4ccnc4c(Oc4cc(F)cc(F)c4)n3)nc(N)c21 (centres unmarked) [Example 23A, 4-amino-2-[8-(3,5-difluorophenoxy)imidazo[1,2-a]pyrazin-6-yl]-5-(4-fluorophenyl)-5-methyl-5,7-dihydro-6H-pyrrolo[2,3-d] pyrimidin-6-one] |
| 109% | 14 nM | CC1(c2ccccc2)C(=O)Nc2nc(-c3cn4ccnc4c(Oc4cccc(F)c4F)n3)nc(N)c21 (centres unmarked) [Example 13B, 4-amino-2-[8-(2,3-difluoro-phenoxy)imidazo [1,2-a]pyrazin-6-yl]-5-methyl-5-phenyl-5,7-dihydro-6H-pyrrolo[2,3-d] pyrimidin-6-one] |
| 98% | 10 nM | CC1(c2ccc(F)cc2)C(=O)Nc2nc(-c3cn4ccnc4c(Oc4ccc(F)c(F)c4)n3)nc(N)c21 (centres unmarked) [Example 18A, 4-amino-2-[8-(3,4-difluorophenoxy)imidazo[1,2-a]pyrazin-6-yl]-5-(4-fluorophenyl)-5-methyl-5,7-dihydro-6H-pyrrolo[2,3-d] pyrimidin-6-one] |
